Measurements taken from publication PMC12628652, “A Validated UPLC‐MS/MS Method for Monitoring Temozolomide and Perillyl Alcohol Metabolites in Biological Matrices: Insights From a Preclinical Pharmacokinetic Study” (Biomedical Chromatography, 2025).

Assays:
[1] = Stability of analytes in rat plasma and tissue matrices (freeze-thaw, bench-top, autosampler); assay type: physicochemical; conditions: for Stability (ER %) Autosampler: 10°C for 24 h; for Stability (ER %) Bench-top: room temperature for 6 h; for Stability (ER %) Freeze/thaw: three freeze–thaw cycles over 24-h intervals
Method: QC samples were prepared by spiking blank rat plasma with PA, AIC, and TMZ at three concentration levels: 30, 80, and 200 ng/mL. Internal standards (IS1 and IS2) were added to each sample at a final concentration of 100 ng/mL. Whole blood was obtained from untreated anesthetized rats that were euthanized as part of the study protocol. Blood samples were collected into heparinized tubes and centrifuged at 3500 rpm for 10 min at 20°C to separate plasma. Organs including the brain, lungs, kidneys, spleen, and liver were promptly excised and homogenized using a Marconi mechanical tissue homogenizer (5 mm probe) in phosphate‐buffered saline (PBS, pH 7.4) at a 1:5 (w/v) tissue‐to‐buffer ratio.
For each matrix sample, 50 μL of homogenate or plasma was mixed with 50 μL of internal standard (IS) solution (100 ng/mL), followed by the addition of the respective working solution to reach the target analyte concentration. The volume was adjusted to 1 mL using an appropriate solvent mixture. Samples were centrifuged again at 3500 rpm for 10 min at 4°C. The resulting supernatants were filtered through 0.22 μm membrane filters prior to chromatographic analysis. All calibration standards and QC samples were prepared freshly on the day of analysis to minimize analyte degradation.
The stability of PA, AIC, and TMZ in rat plasma was assessed under the following conditions using low, medium, and high QC levels: (1) Freeze–thaw stability: Three freeze–thaw cycles over 24‐h intervals; (2) Bench‐top stability: Storage at room temperature for 6 h; (3) Autosampler stability: Storage at 10°C for 24 h. Analytes were considered stable if the relative error (RE%) remained within ±15% (Tiwari and Tiwari [2010]).

[2] = Pharmacokinetic study in rats after single oral administration of POH and TMZ (plasma, UPLC-MS/MS); assay type: in vivo, Male Wistar rats; conditions: rat plasma, single oral dose POH 47 mg/kg and TMZ 2 mg/kg, n = 6
Method: Approximately 200 μL of whole blood was collected from the tail vein of each rat. Samples were centrifuged at 3500 rpm for 10 min at 20°C to separate the plasma. Plasma samples were then subjected to liquid–liquid extraction with ACN. The mixture was centrifuged again at 3500 rpm for 10 min at 4°C. The resulting supernatant was filtered through hydrophobic 0.22 μm membranes and transferred to autosampler vials. A 2 μL aliquot of each sample was injected into the UPLC‐MS/MS system for analysis.
Thawed plasma samples (50 μL) were also prepared by protein precipitation. Each sample was mixed with 50 μL of IS solution and 900 μL of ACN, followed by centrifugation at 3500 rpm for 10 min at 20°C. The supernatants were filtered and analyzed as described. All dilutions were performed based on analyte concentration to ensure compliance with the method's validated dynamic range.
The pharmacokinetic and biodistribution study was conducted in accordance with ethical guidelines and approved by the Animal Ethics Committee of the Universidade Estadual do Centro‐Oeste, Brazil (Protocol No. 026/2023). Male Wistar rats (n = 6 for pharmacokinetics; n = 4 for biodistribution), weighing approximately 200 g, were housed under controlled environmental conditions (12 h light/dark cycle, 35% relative humidity, and temperature of 23°C ± 2°C). Animals had free access to food and water, which were withheld 10 h prior to drug administration and resumed 2 h afterward.
Each animal received a single oral dose of POH (47 mg/kg) and TMZ (2 mg/kg). For pharmacokinetic profiling, blood samples were collected via the tail vein into heparinized tubes at predefined time points: 0.5, 1, 2, 4, 8, 12, and 24 h post‐administration. For biodistribution analysis, a separate cohort of rats (n = 4) was sacrificed 4 h after dosing. Organs, including the brain, liver, lungs, kidneys, and spleen, were collected, homogenized, and stored at −20°C for subsequent quantification, as detailed in Section 3.2.
Pharmacokinetic parameters were calculated using non‐compartmental analysis with the PKSolver plugin for Microsoft Excel. The following parameters were determined: area under the plasma concentration–time curve from 0 to 24 h (AUC0–24h), maximum plasma concentration (Cmax), time to reach Cmax (tmax), elimination half‐life (t1/2), volume of distribution (VD), and total clearance (CL).

[3] = rat brain homogenate, 200 ng/mL
[4] = rat kidney homogenate, 30 ng/mL
[5] = rat kidney homogenate, 80 ng/mL
[6] = rat kidney homogenate, 200 ng/mL
[7] = rat liver homogenate, 200 ng/mL
[8] = rat spleen homogenate, 30 ng/mL
[9] = rat spleen homogenate, 80 ng/mL
[10] = rat spleen homogenate, 200 ng/mL

NC(=O)c1[nH]cnc1N [AIC, 5‐aminoimidazole‐4‐carboxamide]
Stability (ER %) Autosampler ([1]; rat brain homogenate, 30 ng/mL): 2.04%
Stability (ER %) Bench-top ([1]; rat brain homogenate, 30 ng/mL): 7.13%
Stability (ER %) Freeze/thaw ([1]; rat brain homogenate, 30 ng/mL): 8.55%
Stability (ER %) Autosampler ([1]; rat brain homogenate, 80 ng/mL): 4.29%
Stability (ER %) Bench-top ([1]; rat brain homogenate, 80 ng/mL): 8.22%
Stability (ER %) Freeze/thaw ([1]; rat brain homogenate, 80 ng/mL): 1.79%
Stability (ER %) Autosampler [1, 3]: 4.57%
Stability (ER %) Bench-top [1, 3]: 9.26%
Stability (ER %) Freeze/thaw [1, 3]: 6.76%
Stability (ER %) Autosampler [1, 4]: 4.28%
Stability (ER %) Bench-top [1, 4]: 2.11%
Stability (ER %) Freeze/thaw [1, 4]: 1.29%
Stability (ER %) Autosampler [1, 5]: 5.42%
Stability (ER %) Bench-top [1, 5]: 8.94%
Stability (ER %) Freeze/thaw [1, 5]: 8.45%
Stability (ER %) Autosampler [1, 6]: 5.94%
Stability (ER %) Bench-top [1, 6]: 8.76%
Stability (ER %) Freeze/thaw [1, 6]: 6.46%
Stability (ER %) Autosampler ([1]; rat liver homogenate, 30 ng/mL): 4.35%
Stability (ER %) Bench-top ([1]; rat liver homogenate, 30 ng/mL): 9.13%
Stability (ER %) Freeze/thaw ([1]; rat liver homogenate, 30 ng/mL): 1.67%
Stability (ER %) Autosampler ([1]; rat liver homogenate, 80 ng/mL): 1.74%
Stability (ER %) Bench-top ([1]; rat liver homogenate, 80 ng/mL): 3.28%
Stability (ER %) Freeze/thaw ([1]; rat liver homogenate, 80 ng/mL): 9.53%
Stability (ER %) Autosampler [1, 7]: 2.34%
Stability (ER %) Bench-top [1, 7]: 8.71%
Stability (ER %) Freeze/thaw [1, 7]: 7.67%
Stability (ER %) Autosampler ([1]; rat lung homogenate, 30 ng/mL): 2.22%
Stability (ER %) Bench-top ([1]; rat lung homogenate, 30 ng/mL): 7.93%
Stability (ER %) Freeze/thaw ([1]; rat lung homogenate, 30 ng/mL): 5.74%
Stability (ER %) Autosampler ([1]; rat lung homogenate, 80 ng/mL): 2.84%
Stability (ER %) Bench-top ([1]; rat lung homogenate, 80 ng/mL): 8.37%
Stability (ER %) Freeze/thaw ([1]; rat lung homogenate, 80 ng/mL): 1.04%
Stability (ER %) Autosampler ([1]; rat lung homogenate, 200 ng/mL): 3.33%
Stability (ER %) Bench-top ([1]; rat lung homogenate, 200 ng/mL): 8.49%
Stability (ER %) Freeze/thaw ([1]; rat lung homogenate, 200 ng/mL): 6.67%
Stability (ER %) Autosampler ([1]; rat plasma, 30 ng/mL): 12.36%
Stability (ER %) Bench-top ([1]; rat plasma, 30 ng/mL): 6.77%
Stability (ER %) Freeze/thaw ([1]; rat plasma, 30 ng/mL): 10.24%
Stability (ER %) Autosampler ([1]; rat plasma, 80 ng/mL): 13.46%
Stability (ER %) Bench-top ([1]; rat plasma, 80 ng/mL): 10.93%
Stability (ER %) Freeze/thaw ([1]; rat plasma, 80 ng/mL): 5.34%
Stability (ER %) Autosampler ([1]; rat plasma, 200 ng/mL): 3.48%
Stability (ER %) Bench-top ([1]; rat plasma, 200 ng/mL): 9.03%
Stability (ER %) Freeze/thaw ([1]; rat plasma, 200 ng/mL): 1.04%
Stability (ER %) Autosampler [1, 8]: 4.01%
Stability (ER %) Bench-top [1, 8]: 1.42%
Stability (ER %) Freeze/thaw [1, 8]: 8.36%
Stability (ER %) Autosampler [1, 9]: 4.98%
Stability (ER %) Bench-top [1, 9]: 3.74%
Stability (ER %) Freeze/thaw [1, 9]: 4.43%
Stability (ER %) Autosampler [1, 10]: 3.13%
Stability (ER %) Bench-top [1, 10]: 1.52%
Stability (ER %) Freeze/thaw [1, 10]: 1.32%
Tmax ([2]; male, Wistar): 1 h
half-life ([2]; male, Wistar): 18.5 h
k el ([2]; male, Wistar): 1.03e-05 s⁻¹
AUC(0-t) ([2]; male, Wistar, read-out: AUC0–24h): 2190 ng·h/mL
CL [2]: 3.83 mL/min/kg
Vd [2]: 6.09 L/kg
